Data: patent publication US8906868B2, “Aminoglycoside derivatives” (Rempex Pharmaceuticals, Inc., priority 2010, dated 2014)
Values after ≈ are worked out from the molar mass of the structure shown. Like-named read-outs stand apart in the source and are kept apart here.

Tests used:
ECM6010 ant(2″)-I = experiment: microbe, parasite or virus in culture; type: cell-based, Escherichia coli; details: Escherichia coli, read-out: Compound MIC on Bacterial Strains: ECM6010 ant(2″)-I
Description: (§1) To compare microbiological activity of the test compounds, minimum inhibitory concentrations (MIC.s) were determined. Antibiotic MICs were obtained using the broth microdilution method according to Clinical and Laboratory Standards Institute (CLSI) approved guidelines (Methods for dilution antimicrobial susceptibility tests for bacteria that grow aerobically; approved standard—7th ed. CLSI document M7-A7. Clinical and Laboratory Standards Institute, Wayne, Pa., incorporated herein by reference in its entirety). Antibiotics were dissolved as specified by CLSI (Performance standards for antimicrobial susceptibility testing; Seventeenth informational supplement. CLSI document M100-S17. Clinical and Laboratory Standards Institute, Wayne, Pa., incorporated herein by reference in its entirety), and were serially diluted 2-fold in cation adjusted Mueller Hinton Broth (CaMHB) at 2× concentration. Bacterial inoculums were prepared in CaMHB by suspension of a colony from an agar plate that was prepared the previous day to obtain a final concentration of 5×10^5CFU/ml. The plates were incubated for 18 hours at 35° C. […] MIC.s were determined by reading the turbidity of plate wells using a SpectraMax Plus384 plate reader (Molecular Devices, Sunnyvale, Calif., USA) at 600 nm and were confirmed by visual inspection.
(§2) Activity of the test compounds was determined using QC strains and strains with known aminoglycoside resistance mechanisms (TABLE 3). This specific panel contained strains expressing enzymes that covalently modify N2″, N3 and N3′ positions.

ECM6009 aac(3)-II = experiment: microbe, parasite or virus in culture; type: cell-based, Escherichia coli; details: Escherichia coli, read-out: Compound MIC on Bacterial Strains: ECM6009 aac(3)-II
Description: as §1, §2

ECM6006 aph(3′)-III = experiment: microbe, parasite or virus in culture; type: cell-based, Escherichia coli; details: Escherichia coli, read-out: Compound MIC on Bacterial Strains: ECM6006 aph(3′)-III
Description: as §1, §2

ECM6011 aph(3′)-I = experiment: microbe, parasite or virus in culture; type: cell-based, Escherichia coli; details: Escherichia coli, read-out: Compound MIC on Bacterial Strains: ECM6011 aph(3′)-I
Description: as §1, §2

Sa 287 aac(6′) + aph(2″) = experiment: microbe, parasite or virus in culture; type: cell-based, Staphylococcus aureus; details: Staphylococcus aureus, 18 h; Table 5; read-out: Compound MIC on Bacterial Strains: Staphylococcus aureus Sa 287 aac(6′) + aph(2″)
Description: as §1

[1] = system: Staphylococcus aureus (ATCC 29213); experiment: MIC, broth microdilution; details: Staphylococcus aureus
ACM1006 acc(6′)-Ib = experiment: microbe, parasite or virus in culture; type: cell-based, Acinetobacter baumannii; details: Acinetobacter baumannii; Table 4; read-out: Compound MIC on Bacterial Strains: Acinetobacter baumannii ACM1006 acc(6′)-Ib
Description: as §1

ACM1005 ATCC 19004 = experiment: MIC, broth microdilution; type: cell-based, Acinetobacter baumannii; details: Acinetobacter baumannii, ATCC19004; Table 4; read-out: Compound MIC on Bacterial Strains: Acinetobacter baumannii ACM1005 ATCC 19004
Description: as §1

[2] = system: Acinetobacter baumannii (ATCC 19606); experiment: MIC, broth microdilution; details: Acinetobacter baumannii, ATCC19606, read-out: Compound MIC on Bacterial Strains: A. baumannii ATCC 19606
[3] = system: Klebsiella pneumonia (ATCC 43816); experiment: MIC, broth microdilution; details: Klebsiella pneumoniae, ATCC43816, read-out: Compound MIC on Bacterial Strains: K. pneumonia ATCC 43816
[4] = system: Pseudomonas aeruginosa (ATCC 27853); experiment: MIC, broth microdilution; details: Pseudomonas aeruginosa
[5] = system: ECM6007 aac(6′) + aph(2″); experiment: microbe, parasite or virus in culture; type: cell-based, Escherichia coli; details: Escherichia coli, 18 h; Table 4; read-out: Compound MIC on Bacterial Strains: Escherichia coli ECM6007 aac(6′) + aph(2″)
Description: as §1

EC1001 acc(6′)-Ib = experiment: microbe, parasite or virus in culture; type: cell-based, Escherichia coli; details: Escherichia coli; Table 4; read-out: Compound MIC on Bacterial Strains: Escherichia coli EC1001 acc(6′)-Ib
Description: as §1

ECM6003 rmtB = experiment: microbe, parasite or virus in culture; type: cell-based, Escherichia coli; details: Escherichia coli; Table 3; read-out: Compound MIC on Bacterial Strains: ECM6003 rmtB
Description: as §1, §2
The panel also contained a strain expressing ribosomal RNA methylase, RmtB.

[6] = system: Escherichia coli (ATCC 25922); experiment: MIC, broth microdilution; details: Escherichia coli
EC1002 aph(3′)-IV = experiment: organism not typed; type: cell-based; details: read-out: Compound MIC on Bacterial Strains: EC1002 aph(3′)-IV
Description: as §1, §2

PAM3072 aac(6′)-II = experiment: microbe, parasite or virus in culture; type: cell-based, Pseudomonas aeruginosa; details: Pseudomonas aeruginosa, Table 5; read-out: Compound MIC on Bacterial Strains: Pseudomonas aeruginosa PAM3072 aac(6′)-II
Description: as §1

PAM3073 aac(6′)-I = experiment: microbe, parasite or virus in culture; type: cell-based, Pseudomonas aeruginosa; details: Pseudomonas aeruginosa, Table 5; read-out: Compound MIC on Bacterial Strains: Pseudomonas aeruginosa PAM3073 aac(6′)-I
Description: as §1

[7] = ATCC29213, read-out: Compound MIC on Bacterial Strains: S. aureus ATCC 29213, QC strain, Table 2
[8] = ATCC29213, read-out: Compound MIC on Bacterial Strains: Staphylococcus aureus SAM1000 ATCC 29213, Table 5
[9] = ATCC27853, read-out: Compound MIC on Bacterial Strains: P. aeruginosa ATCC 27853
[10] = ATCC27853, read-out: Compound MIC on Bacterial Strains: Pseudomonas aeruginosa PAM3034 ATCC 27853
[11] = ATCC25922, read-out: Compound MIC on Bacterial Strains: E. coli ATCC 25922
[12] = ATCC25922, read-out: Compound MIC on Bacterial Strains: ECM6000 ATCC 25922
[13] = ATCC25922, read-out: Compound MIC on Bacterial Strains: Escherichia coli ECM6000 ATCC 25922

Row | Structure (SMILES) | MIC (ECM6010 ant(2″)-I) [µg/mL] | MIC (ECM6009 aac(3)-II) [µg/mL] | MIC (ECM6006 aph(3′)-III) [µg/mL] | MIC (ECM6011 aph(3′)-I) [µg/mL] | MIC [1, 7] [µg/mL] | MIC [1, 8] [µg/mL] | MIC (ACM1006 acc(6′)-Ib) [µg/mL] | MIC (ACM1005 ATCC 19004) [µg/mL] | MIC [2] [µg/mL] | MIC [3] [µg/mL] | MIC [4, 9] [µg/mL] | MIC [4, 10] [µg/mL] | MIC [5] [µg/mL] | MIC (EC1001 acc(6′)-Ib) [µg/mL] | MIC (ECM6003 rmtB) [µg/mL] | MIC [6, 11] [µg/mL] | MIC [6, 12] [µg/mL] | MIC [6, 13] [µg/mL] | MIC (EC1002 aph(3′)-IV) [µg/mL] | MIC (PAM3072 aac(6′)-II) [µg/mL] | further results
1 | NCC[C@H](O)C(=O)N[C@@H]1C[C@H](N)[C@@H](O[C@H]2O[C@H](CN)[C@@H](O)[C@H](O)[C@H]2O)[C@H](O)[C@H]1O[C@H]1O[C@H](CO)[C@@H](O)[C@H](N)[C@H]1O [Amikacin, reference compound] | 1 to 8 (≈ 1.71 to 13.7 µM) | < 1 | 1 to 8 (≈ 1.71 to 13.7 µM) | 1 to 8 (≈ 1.71 to 13.7 µM) | 1 to 8 (≈ 1.71 to 13.7 µM) | < 1 | 1 to 8 (≈ 1.71 to 13.7 µM) | < 1 | 1 to 8 (≈ 1.71 to 13.7 µM) | < 1 | 1 to 8 (≈ 1.71 to 13.7 µM) | 1 to 8 (≈ 1.71 to 13.7 µM) | < 1 | > 8 | > 8 | 1 to 8 (≈ 1.71 to 13.7 µM) | 1 to 8 (≈ 1.71 to 13.7 µM) | 1 to 8 (≈ 1.71 to 13.7 µM) | > 8 |  | MIC (Sa 287 aac(6′) + aph(2″)): > 8 µg/mL
2 | CN[C@@H]1C(O)[C@@H](OC2C(O)C(O[C@H]3O[C@H](CN)CCC3N)[C@@H](N)C[C@H]2NC(=N)CO)OCC1(C)O (stereo partly drawn) [Compound 22, N-((1R,2S,3S,4R,5S)-5-amino-4-((2R,3R,6S)-3-amino-6-(aminomethyl)tetrahydro-2H-pyran-2-vlxy)-2-((2R,3R,4R,5R)-3,5-dihydroxy-5-methyl-4-(methylamino)tetrahydro-2H-pyran-2-yloxy)-3-hydroxycyclohexyl)-2-hydroxy acetimidamide] | > 8 | > 8 | 1 to 8 (≈ 1.97 to 15.8 µM) | 1 to 8 (≈ 1.97 to 15.8 µM) | < 1 | < 1 | > 8 | 1 to 8 (≈ 1.97 to 15.8 µM) | > 8 | < 1 | < 1 | 1 to 8 (≈ 1.97 to 15.8 µM) | 1 to 8 | > 8 | > 8 | 1 to 8 (≈ 1.97 to 15.8 µM) | 1 to 8 (≈ 1.97 to 15.8 µM) | 1 to 8 (≈ 1.97 to 15.8 µM) | 1 to 8 (≈ 1.97 to 15.8 µM) | > 8 | MIC (PAM3073 aac(6′)-I): 1 to 8 µg/mL (≈ 1.97 to 15.8 µM)
3 | CN[C@@H]1[C@@H](O)[C@@H](O[C@@H]2[C@@H](O)[C@H](O[C@H]3O[C@H](CNCCO)CC[C@H]3N)[C@@H](N)C[C@H]2NC(=O)[C@@H](O)CCCN)OC[C@]1(C)O [Compound 40, (S)-5-amino-N-((1R,2S,3S,4R,5S)-5-amino-4-((2R,3R,6S)-3-amino-6-((2-hydroxyethylamino)methyl)tetrahydro-2H-pyran-2-yloxy)-2-((2R,3R,4R,5R)-3,5-dihydroxy-5-methyl-4-(methylamino)tetrahydro-2H-pyran-2-yloxy)-3-hydroxycyclohexyl)-2-hydroxypentanamide] | < 1 | < 1 | 1 to 8 (≈ 1.64 to 13.1 µM) | < 1 | 1 to 8 (≈ 1.64 to 13.1 µM) | 1 to 8 (≈ 1.64 to 13.1 µM) | 1 to 8 (≈ 1.64 to 13.1 µM) | 1 to 8 (≈ 1.64 to 13.1 µM) | > 8 | < 1 | > 8 | > 8 | < 1 | 1 to 8 (≈ 1.64 to 13.1 µM) | > 8 | 1 to 8 (≈ 1.64 to 13.1 µM) | 1 to 8 (≈ 1.64 to 13.1 µM) | 1 to 8 (≈ 1.64 to 13.1 µM) | 1 to 8 (≈ 1.64 to 13.1 µM) | > 8 | MIC (PAM3073 aac(6′)-I): 1 to 8 µg/mL (≈ 1.64 to 13.1 µM)
